According to patent US8759301B2, “Gene fusion targeted therapy” (The Regents of The University of Michigan, priority 2010, dated 2014):
“Also recorded” adds a separate entry of the source. Where two headings read alike, the source gives them in different places.

Legend:
[1] = target: AR (Homo sapiens, UniProt P10275); conditions: VCaP, R1881 treated (10 nM, 16 hr, hormone deprived)
Experimental: For ERG ChIP, LNCaP, VCaP, RWPE+ERG, and RWPE+GUS cells grown in corresponding regular medium were used.
ChIP samples were prepared for sequencing using the Genomic DNA sample prep kit (Illumina) following manufacturers protocols. ChIP-Sequencing was performed using Illumina Genome Analyzer according to standard manufacturer's procedures. The raw sequencing image data were analyzed by the Illumina analysis pipeline, aligned to the unmasked human reference genome (NCBI v36, hg18) using the ELAND software (Illumina) to generate sequence reads of 25-32 bps.
It was first counted how many uniquely mapped reads are there in each sample and the ratio of the two counts was used as the normalizing factor to bring the total number of useable reads to the same level in both samples. Next each uniquely mapped read was extended directionally to form a 200 bp hypothetical DNA fragment (HDF) in each sample. 200 is assumed to be the average length of size-selected DNA pieces during sample preparation (175-225 bp).
Under the null hypothesis of no enrichment in the stimulated sample versus unstimulated samples, reads from both samples are assumed to land on the genome following the same Poisson distribution (after corrected for the read counts in the unstimulated sample). […] The probability of observing the read difference between two samples in each coverage region was calculated numerically. […]

[2] = system: AR mRNA; assay: Quantitative PCR of AR transcript in VCaP cells; format: cell-based
Experimental: All PCR experiments were performed in triplicates.

[3] = system: AR protein; assay: Immunoblot of AR protein in VCaP cells; format: cell-based
From the text: VCaP cells grown in DMEMglutamax (Invitrogen, Carlsbad, Calif.) supplemented with 10% FBS to 80% confluence. Cells were harvested with or without formaldehyde crosslinking, and nuclei were isolated subsequently. After washing with TBS twice, nuclei were lysed and sonicated in RIPA buffer containing protease inhibitors (Roche applied science, Indianapolis, Ind.). […] Mouse monoclonal anti-AR antibody (AR441) from Labvision (Thermo scientific, Fremont, Calif.) was used for Western experiment.

[4] = target: AR (Homo sapiens, UniProt P10275, T878A); conditions: for number of AR binding sites: LNCaP R1881-treated
AR (Homo sapiens, UniProt P10275, T878A), sequence (P10275 whole entry T878A): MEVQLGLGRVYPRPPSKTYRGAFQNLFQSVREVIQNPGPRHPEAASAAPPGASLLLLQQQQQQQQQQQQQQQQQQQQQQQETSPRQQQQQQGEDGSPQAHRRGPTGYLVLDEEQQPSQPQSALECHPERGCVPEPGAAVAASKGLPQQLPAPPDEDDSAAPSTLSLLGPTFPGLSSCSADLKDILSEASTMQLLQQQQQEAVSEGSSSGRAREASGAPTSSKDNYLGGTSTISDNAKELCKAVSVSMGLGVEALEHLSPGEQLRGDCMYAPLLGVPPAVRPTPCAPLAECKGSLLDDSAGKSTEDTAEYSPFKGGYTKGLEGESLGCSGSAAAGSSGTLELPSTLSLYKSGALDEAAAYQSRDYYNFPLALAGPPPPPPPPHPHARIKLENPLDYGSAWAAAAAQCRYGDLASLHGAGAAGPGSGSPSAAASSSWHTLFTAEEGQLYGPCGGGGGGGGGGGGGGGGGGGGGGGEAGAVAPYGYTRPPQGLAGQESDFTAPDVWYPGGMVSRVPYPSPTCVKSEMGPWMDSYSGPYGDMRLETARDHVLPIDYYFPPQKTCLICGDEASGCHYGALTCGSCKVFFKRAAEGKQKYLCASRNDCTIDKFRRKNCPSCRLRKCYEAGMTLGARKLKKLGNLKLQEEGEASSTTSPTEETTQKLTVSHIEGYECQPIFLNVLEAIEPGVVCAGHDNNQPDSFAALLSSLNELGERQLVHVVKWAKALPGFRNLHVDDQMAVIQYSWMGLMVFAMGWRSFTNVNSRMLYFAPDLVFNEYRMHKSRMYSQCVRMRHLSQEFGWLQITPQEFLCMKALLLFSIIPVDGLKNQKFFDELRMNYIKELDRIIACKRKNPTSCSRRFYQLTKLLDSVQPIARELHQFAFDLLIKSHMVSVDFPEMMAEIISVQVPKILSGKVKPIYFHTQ

AR (Homo sapiens, UniProt P10275), sequence (P10275 whole entry): as the sequence (P10275 whole entry T878A) above, with A878T counted along it

C[C@]1(O)CC[C@H]2[C@@H]3CCC4=CC(=O)CCC4=C3C=C[C@@]21C [R1881, methyltrienolone]
Enriched Peaks, AR ChIP-Seq [1]: 21376 | AR mRNA expression ([2]; VCaP cells): inhibits; also recorded: repression | repression of AR transcript ([2]; hormone-deprived VCaP, 24 h after treatment, versus vehicle): over 10 folds | AR protein expression [3]: inhibits | number of AR binding sites ([4]; distance to TSS 7 kb): 145 | number of AR binding sites ([4]; distance to TSS 8 kb): 148 | number of AR binding sites ([4]; distance to TSS 9 kb): 139 | number of AR binding sites ([4]; distance to TSS 10 kb): 117 | number of AR binding sites ([4]; distance to TSS 11 kb): 120 | number of AR binding sites ([4]; distance to TSS 12 kb): 123 | number of AR binding sites ([4]; distance to TSS 13 kb): 134 | number of AR binding sites ([4]; distance to TSS 14 kb): 126 | number of AR binding sites ([4]; distance to TSS 15 kb): 137 | number of AR binding sites ([4]; distance to TSS 16 kb): 114 | number of AR binding sites ([4]; distance to TSS 17 kb): 109 | number of AR binding sites ([4]; distance to TSS 18 kb): 107 | number of AR binding sites ([4]; distance to TSS 19 kb): 109 | number of AR binding sites ([4]; distance to TSS 20 kb): 97 | number of AR binding sites ([4]; distance to TSS 21 kb): 97 | number of AR binding sites ([4]; distance to TSS 22 kb): 98 | number of AR binding sites ([4]; distance to TSS 23 kb): 100 | number of AR binding sites ([4]; distance to TSS 24 kb): 99 | number of AR binding sites ([4]; distance to TSS 25 kb): 105 | number of AR binding sites ([4]; distance to TSS 26 kb): 105 | number of AR binding sites ([4]; distance to TSS 27 kb): 86 | number of AR binding sites ([4]; distance to TSS 28 kb): 90 | number of AR binding sites ([4]; distance to TSS 29 kb): 76 | number of AR binding sites ([4]; distance to TSS 30 kb): 78 | number of AR binding sites ([4]; distance to TSS 31 kb): 101 | number of AR binding sites ([4]; distance to TSS 32 kb): 86 | number of AR binding sites ([4]; distance to TSS 33 kb): 94 | number of AR binding sites ([4]; distance to TSS 34 kb): 79 | number of AR binding sites ([4]; distance to TSS 35 kb): 68 | number of AR binding sites ([4]; distance to TSS 36 kb): 79 | number of AR binding sites ([4]; distance to TSS 37 kb): 88 | number of AR binding sites ([4]; distance to TSS 38 kb): 72 | number of AR binding sites ([4]; distance to TSS 39 kb): 57 | number of AR binding sites ([4]; distance to TSS 40 kb): 65 | number of AR binding sites ([4]; distance to TSS 41 kb): 76 | number of AR binding sites ([4]; distance to TSS 42 kb): 65 | number of AR binding sites ([4]; distance to TSS 43 kb): 73 | number of AR binding sites ([4]; distance to TSS 44 kb): 58 | number of AR binding sites ([4]; distance to TSS 45 kb): 69 | number of AR binding sites ([4]; distance to TSS 46 kb): 56 | number of AR binding sites ([4]; distance to TSS 47 kb): 53 | number of AR binding sites ([4]; distance to TSS 48 kb): 55 | number of AR binding sites ([4]; distance to TSS 49 kb): 61 | number of AR binding sites ([4]; distance to TSS 50 kb): 77 | number of AR binding sites ([4]; distance to TSS 51 kb): 50 | number of AR binding sites ([4]; distance to TSS 52 kb): 54 | number of AR binding sites ([4]; distance to TSS 53 kb): 61 | number of AR binding sites ([4]; distance to TSS 54 kb): 56 | number of AR binding sites ([4]; distance to TSS 55 kb): 41 | number of AR binding sites ([4]; distance to TSS 56 kb): 55 | number of AR binding sites ([4]; distance to TSS 57 kb): 59 | number of AR binding sites ([4]; distance to TSS 58 kb): 60 | number of AR binding sites ([4]; distance to TSS 59 kb): 58 | number of AR binding sites ([4]; distance to TSS 60 kb): 43 | number of AR binding sites ([4]; distance to TSS 61 kb): 36 | number of AR binding sites ([4]; distance to TSS 62 kb): 49 | number of AR binding sites ([4]; distance to TSS 63 kb): 40 | number of AR binding sites ([4]; distance to TSS 64 kb): 52 | number of AR binding sites ([4]; distance to TSS 65 kb): 50 | number of AR binding sites ([4]; distance to TSS 66 kb): 39 | number of AR binding sites ([4]; distance to TSS 67 kb): 37 | number of AR binding sites ([4]; distance to TSS 68 kb): 47 | number of AR binding sites ([4]; distance to TSS 69 kb): 47 | number of AR binding sites ([4]; distance to TSS 70 kb): 45 | number of AR binding sites ([4]; distance to TSS 71 kb): 43 | number of AR binding sites ([4]; distance to TSS 72 kb): 43 | number of AR binding sites ([4]; distance to TSS 73 kb): 57 | number of AR binding sites ([4]; distance to TSS 74 kb): 37 | number of AR binding sites ([4]; distance to TSS 75 kb): 34 | number of AR binding sites ([4]; distance to TSS 76 kb): 39 | number of AR binding sites ([4]; distance to TSS 77 kb): 48 | number of AR binding sites ([4]; distance to TSS 78 kb): 31 | number of AR binding sites ([4]; distance to TSS 79 kb): 37 | number of AR binding sites ([4]; distance to TSS 80 kb): 36 | number of AR binding sites ([4]; distance to TSS 81 kb): 35 | number of AR binding sites ([4]; distance to TSS 82 kb): 49 | number of AR binding sites ([4]; distance to TSS 83 kb): 39 | number of AR binding sites ([4]; distance to TSS 84 kb): 32 | number of AR binding sites ([4]; distance to TSS 85 kb): 39 | number of AR binding sites ([4]; distance to TSS 86 kb): 40 | number of AR binding sites ([4]; distance to TSS 87 kb): 31 | number of AR binding sites ([4]; distance to TSS 88 kb): 34 | number of AR binding sites ([4]; distance to TSS 89 kb): 33 | number of AR binding sites ([4]; distance to TSS 90 kb): 33 | number of AR binding sites ([4]; distance to TSS 91 kb): 41 | number of AR binding sites ([4]; distance to TSS 92 kb): 28 | number of AR binding sites ([4]; distance to TSS 93 kb): 36 | number of AR binding sites ([4]; distance to TSS 94 kb): 27 | number of AR binding sites ([4]; distance to TSS 95 kb): 28 | number of AR binding sites ([4]; distance to TSS 96 kb): 35 | number of AR binding sites ([4]; distance to TSS 97 kb): 27 | number of AR binding sites ([4]; distance to TSS 98 kb): 27 | number of AR binding sites ([4]; distance to TSS 99 kb): 34 | number of AR binding sites ([4]; distance to TSS 100 kb): 19 | number of AR binding sites ([4]; distance to TSS 101 kb): 24 | number of AR binding sites ([4]; distance to TSS 102 kb): 23 | number of AR binding sites ([4]; distance to TSS 103 kb): 28 | number of AR binding sites ([4]; distance to TSS 104 kb): 30 | number of AR binding sites ([4]; distance to TSS 105 kb): 20 | number of AR binding sites ([4]; distance to TSS 106 kb): 31 | Enriched Peaks, AR ChIP-Seq ([4]; LNCaP, R1881 treated (10 nM, 16 hr, hormone deprived)): 44536
